{"source": "ChEMBL document CHEMBL5705888", "about": "“Substrate specificity and inhibitors of LRRK2, a protein kinase mutated in Parkinson's disease” (Biochem J, 2009)", "key": {"[1]": {"target": "Rho-associated protein kinase 2 (Homo sapiens, UniProt O75116)", "sequence (O75116 whole entry, the tested form may be a part)": "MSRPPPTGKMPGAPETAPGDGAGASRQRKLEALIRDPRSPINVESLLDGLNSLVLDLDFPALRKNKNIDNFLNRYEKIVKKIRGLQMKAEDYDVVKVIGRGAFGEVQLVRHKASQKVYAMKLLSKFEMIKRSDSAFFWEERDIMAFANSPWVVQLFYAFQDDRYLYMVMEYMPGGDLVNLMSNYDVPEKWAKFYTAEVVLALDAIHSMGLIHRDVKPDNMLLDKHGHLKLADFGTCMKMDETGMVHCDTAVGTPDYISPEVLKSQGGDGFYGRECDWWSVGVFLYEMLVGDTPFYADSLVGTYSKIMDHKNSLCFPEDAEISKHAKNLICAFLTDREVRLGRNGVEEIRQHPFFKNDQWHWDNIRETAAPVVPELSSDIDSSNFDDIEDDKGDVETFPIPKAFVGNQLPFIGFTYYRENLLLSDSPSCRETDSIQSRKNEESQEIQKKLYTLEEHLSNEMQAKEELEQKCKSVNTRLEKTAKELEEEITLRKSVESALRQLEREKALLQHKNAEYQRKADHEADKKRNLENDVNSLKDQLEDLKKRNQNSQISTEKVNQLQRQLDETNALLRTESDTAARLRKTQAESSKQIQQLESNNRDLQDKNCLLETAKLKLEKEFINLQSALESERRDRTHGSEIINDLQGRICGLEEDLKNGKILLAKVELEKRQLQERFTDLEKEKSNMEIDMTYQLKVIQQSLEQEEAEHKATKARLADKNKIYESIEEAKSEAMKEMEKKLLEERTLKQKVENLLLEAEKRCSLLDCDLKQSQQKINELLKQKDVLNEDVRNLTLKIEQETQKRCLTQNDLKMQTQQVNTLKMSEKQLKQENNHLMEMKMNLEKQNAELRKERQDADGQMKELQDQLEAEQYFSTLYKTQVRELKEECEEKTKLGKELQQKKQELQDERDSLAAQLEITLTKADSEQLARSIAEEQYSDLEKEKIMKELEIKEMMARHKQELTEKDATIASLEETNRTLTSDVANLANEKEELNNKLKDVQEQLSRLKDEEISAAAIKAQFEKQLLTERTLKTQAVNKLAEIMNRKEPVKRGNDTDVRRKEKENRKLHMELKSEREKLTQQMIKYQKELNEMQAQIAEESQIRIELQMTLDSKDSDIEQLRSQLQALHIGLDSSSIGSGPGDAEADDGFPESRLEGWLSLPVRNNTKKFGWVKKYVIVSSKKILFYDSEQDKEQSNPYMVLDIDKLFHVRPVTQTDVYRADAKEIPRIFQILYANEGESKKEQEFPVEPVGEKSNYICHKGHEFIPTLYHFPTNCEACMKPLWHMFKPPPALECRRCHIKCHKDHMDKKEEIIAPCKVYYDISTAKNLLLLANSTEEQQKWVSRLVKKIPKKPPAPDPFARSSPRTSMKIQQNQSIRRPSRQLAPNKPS", "assay": "Inhibition of His6-tagged ROCK2 (2 to 543 residues) (unknown origin) using peptide as substrate incubated for 15 mins in presence of ATP by immunoblotting analysis"}, "[2]": {"target": "Leucine-rich repeat serine/threonine-protein kinase 2 (Homo sapiens, UniProt Q5S007, G2019S)", "sequence (Q5S007 whole entry G2019S, the tested form may be a part)": "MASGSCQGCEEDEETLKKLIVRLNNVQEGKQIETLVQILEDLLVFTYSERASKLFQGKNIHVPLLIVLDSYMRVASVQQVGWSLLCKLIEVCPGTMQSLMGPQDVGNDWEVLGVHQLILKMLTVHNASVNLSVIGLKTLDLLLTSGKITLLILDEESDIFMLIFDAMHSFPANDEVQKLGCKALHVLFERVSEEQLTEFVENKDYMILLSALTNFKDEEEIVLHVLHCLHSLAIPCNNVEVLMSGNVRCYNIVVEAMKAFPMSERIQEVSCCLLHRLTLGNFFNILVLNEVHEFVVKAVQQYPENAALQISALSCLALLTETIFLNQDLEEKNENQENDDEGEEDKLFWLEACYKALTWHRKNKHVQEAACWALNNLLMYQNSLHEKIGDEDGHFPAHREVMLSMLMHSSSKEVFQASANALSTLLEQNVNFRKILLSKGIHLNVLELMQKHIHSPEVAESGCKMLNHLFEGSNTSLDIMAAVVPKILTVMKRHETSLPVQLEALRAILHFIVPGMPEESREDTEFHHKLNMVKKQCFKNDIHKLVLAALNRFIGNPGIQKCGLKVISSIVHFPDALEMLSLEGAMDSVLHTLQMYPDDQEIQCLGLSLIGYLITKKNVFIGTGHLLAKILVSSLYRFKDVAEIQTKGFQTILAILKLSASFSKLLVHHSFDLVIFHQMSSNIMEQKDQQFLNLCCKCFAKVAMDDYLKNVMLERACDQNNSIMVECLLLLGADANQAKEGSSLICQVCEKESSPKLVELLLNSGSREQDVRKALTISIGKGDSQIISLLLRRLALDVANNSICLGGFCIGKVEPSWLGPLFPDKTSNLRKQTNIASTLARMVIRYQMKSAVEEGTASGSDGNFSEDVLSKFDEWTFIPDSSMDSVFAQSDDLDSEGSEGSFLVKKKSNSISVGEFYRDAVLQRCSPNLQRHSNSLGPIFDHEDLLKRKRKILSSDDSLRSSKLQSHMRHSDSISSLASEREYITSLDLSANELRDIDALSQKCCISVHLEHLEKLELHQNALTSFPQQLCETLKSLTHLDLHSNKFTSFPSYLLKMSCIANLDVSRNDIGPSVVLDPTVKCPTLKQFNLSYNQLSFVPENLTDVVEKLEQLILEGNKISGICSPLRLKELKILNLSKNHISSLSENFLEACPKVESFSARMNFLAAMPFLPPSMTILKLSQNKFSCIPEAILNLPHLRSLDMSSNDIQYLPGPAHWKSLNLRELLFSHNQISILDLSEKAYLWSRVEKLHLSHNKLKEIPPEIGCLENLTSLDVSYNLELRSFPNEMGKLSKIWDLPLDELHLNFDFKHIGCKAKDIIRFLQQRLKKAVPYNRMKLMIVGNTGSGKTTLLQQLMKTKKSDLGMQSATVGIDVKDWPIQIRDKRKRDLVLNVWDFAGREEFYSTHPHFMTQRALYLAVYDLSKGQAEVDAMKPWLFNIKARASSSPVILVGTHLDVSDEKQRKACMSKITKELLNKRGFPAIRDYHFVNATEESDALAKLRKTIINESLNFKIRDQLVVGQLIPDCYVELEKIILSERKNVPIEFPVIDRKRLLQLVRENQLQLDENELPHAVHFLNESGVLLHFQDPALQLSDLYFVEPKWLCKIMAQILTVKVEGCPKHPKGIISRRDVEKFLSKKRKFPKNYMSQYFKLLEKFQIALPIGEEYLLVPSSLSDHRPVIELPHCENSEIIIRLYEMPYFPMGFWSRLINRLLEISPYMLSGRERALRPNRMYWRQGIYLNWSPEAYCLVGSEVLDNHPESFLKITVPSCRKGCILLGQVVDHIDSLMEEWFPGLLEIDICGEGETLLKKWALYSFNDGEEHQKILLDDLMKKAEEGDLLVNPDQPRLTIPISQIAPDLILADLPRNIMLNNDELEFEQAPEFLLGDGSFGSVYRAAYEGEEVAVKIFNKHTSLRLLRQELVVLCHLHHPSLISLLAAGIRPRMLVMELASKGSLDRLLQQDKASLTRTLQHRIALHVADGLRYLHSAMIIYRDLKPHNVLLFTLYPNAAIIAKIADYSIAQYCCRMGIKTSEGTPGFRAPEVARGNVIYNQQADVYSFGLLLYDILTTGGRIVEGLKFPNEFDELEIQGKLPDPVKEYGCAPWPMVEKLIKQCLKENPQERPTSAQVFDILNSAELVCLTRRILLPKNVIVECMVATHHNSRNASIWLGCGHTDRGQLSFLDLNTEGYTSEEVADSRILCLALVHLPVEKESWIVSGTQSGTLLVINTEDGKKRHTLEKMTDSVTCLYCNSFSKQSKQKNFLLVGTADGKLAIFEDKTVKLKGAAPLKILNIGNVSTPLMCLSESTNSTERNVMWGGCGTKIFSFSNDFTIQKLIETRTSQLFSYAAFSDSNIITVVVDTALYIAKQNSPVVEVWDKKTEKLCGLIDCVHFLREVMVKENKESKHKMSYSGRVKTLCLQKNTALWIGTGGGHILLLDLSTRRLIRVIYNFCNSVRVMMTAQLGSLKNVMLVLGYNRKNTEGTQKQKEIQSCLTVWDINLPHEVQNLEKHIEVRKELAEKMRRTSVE", "assay": "Inhibition of GST-tagged LRRK2 G2019S mutant (1326 to 2527 residues) (unknown origin) using peptide as substrate incubated for 15 mins in presence of ATP by immunoblotting analysis"}, "[3]": {"target": "Leucine-rich repeat serine/threonine-protein kinase 2 (Homo sapiens, UniProt Q5S007)", "sequence (Q5S007 whole entry, the tested form may be a part)": "as the sequence (Q5S007 whole entry G2019S, the tested form may be a part) above, with S2019G counted along it", "assay": "Inhibition of GST-tagged LRRK2 (1326 to 2527 residues) (unknown origin) using peptide as substrate incubated for 15 mins in presence of ATP by immunoblotting analysis"}}, "data": [{"smiles": "O=S(=O)(NCCNC/C=C/c1ccc(Br)cc1)Nc1cccc2cnccc12", "values": [{"measurement": "IC50", "setting": "[1]", "value": 290, "unit": "nM"}, {"measurement": "IC50", "setting": "[2]", "value": "> 10", "unit": "µM"}, {"measurement": "IC50", "setting": "[3]", "value": "> 10", "unit": "µM"}]}]}
